# Test results: US11414425B2 (priority 2018, dated 2022)
# Where two headings read alike, the source gives them in different places.
# Key:
# GABAA receptors (α5β2γ2) = molecular target: T1, GABAA receptors (α5β2γ2) (Homo sapiens, UniProt P18507+P31644); experiment: Positive allosteric modulator activity: potentiation of EC20 GABA current in oocytes; format: cell-based; conditions: read-out: GABA α5 Functional Data (potentiation of EC20 GABA); @ 100 nM; ranges
# T1 construct: expressed in transfected cells
# Description: On day 1, 1 ng/32 nL of GABAA α5β2γ2 cDNA was injected into one oocyte. Test starts on day 2. The cDNA injected to the oocytes was a mix of alpha, beta and gamma, their ratio is 1:1:10 (by weight) and the total weight of the mixed 3 subunits to be injected in one oocyte was 1 ng in 32 nl volume. The injected oocytes can also be tested on day 3. In such case, the cDNA amount injected to the oocytes should be reduced by 20%.
# 1). 8 oocytes were placed in 8 chambers of OpusXpress and superfused with Modified Barth's Saline (MBS) at 3 mL/min. Glass electrodes back-filled with 3M KCl (0.5-3 megaohms) were used.
# 1). New oocytes were used to run new test.
# 3). […] Oocytes were washed with MBS for 5-10 min.
# 4). […] Itest was divided by IGABA to obtain potentiation (%).
# Test Compounds at Multiple Doses • 1). Repeat the above steps 1), 2) and 3) in the control test. • 2). […] Divide Itest by IGABA to obtain potentiation (%). • 3). Discard all tested oocytes, new oocytes were used and the above steps 1) and 2) were repeated to test second concentration of the same compound. Each oocyte was used for only one concentration test for a single test compound. The steps were repeated for other test compounds.
# α5β3γ2 GABAA receptors = α5β3γ2 GABAA receptors (Homo sapiens, UniProt P18507+P31644); experiment: [3H]Ro15-1788 binding, membranes of Ltk cells stably expressing α5β3γ2 GABAA receptors
# [1] = ranges, inhibition of [3H]Ro15-1788 binding
# α5β3γ2 GABAA receptors, sequence (P31644 32-462): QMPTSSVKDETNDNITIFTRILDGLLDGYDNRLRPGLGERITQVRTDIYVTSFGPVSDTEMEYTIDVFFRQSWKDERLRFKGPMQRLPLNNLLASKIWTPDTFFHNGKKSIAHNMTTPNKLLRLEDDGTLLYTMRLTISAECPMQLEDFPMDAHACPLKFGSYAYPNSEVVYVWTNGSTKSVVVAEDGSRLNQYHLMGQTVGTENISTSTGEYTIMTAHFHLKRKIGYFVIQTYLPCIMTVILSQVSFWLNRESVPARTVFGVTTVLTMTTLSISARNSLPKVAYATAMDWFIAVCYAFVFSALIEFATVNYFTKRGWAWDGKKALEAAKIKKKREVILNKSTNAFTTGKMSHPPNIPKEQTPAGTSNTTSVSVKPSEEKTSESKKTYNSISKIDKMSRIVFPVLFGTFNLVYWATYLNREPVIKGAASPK
# α5β3γ2 GABAA receptors, sequence (P28472 26-473 partner): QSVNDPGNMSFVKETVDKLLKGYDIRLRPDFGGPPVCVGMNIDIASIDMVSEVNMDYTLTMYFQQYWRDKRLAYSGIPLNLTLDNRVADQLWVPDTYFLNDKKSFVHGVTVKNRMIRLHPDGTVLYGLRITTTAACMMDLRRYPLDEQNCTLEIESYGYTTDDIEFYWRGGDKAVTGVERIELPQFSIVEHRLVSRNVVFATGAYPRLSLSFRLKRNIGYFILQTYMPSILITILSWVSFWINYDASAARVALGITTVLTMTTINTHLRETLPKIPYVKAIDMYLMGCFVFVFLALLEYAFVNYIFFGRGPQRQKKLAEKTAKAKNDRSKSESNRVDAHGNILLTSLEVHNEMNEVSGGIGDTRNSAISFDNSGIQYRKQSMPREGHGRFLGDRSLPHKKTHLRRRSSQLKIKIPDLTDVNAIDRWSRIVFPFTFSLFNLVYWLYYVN
# α5β3γ2 GABAA receptors, sequence (P18507 40-475): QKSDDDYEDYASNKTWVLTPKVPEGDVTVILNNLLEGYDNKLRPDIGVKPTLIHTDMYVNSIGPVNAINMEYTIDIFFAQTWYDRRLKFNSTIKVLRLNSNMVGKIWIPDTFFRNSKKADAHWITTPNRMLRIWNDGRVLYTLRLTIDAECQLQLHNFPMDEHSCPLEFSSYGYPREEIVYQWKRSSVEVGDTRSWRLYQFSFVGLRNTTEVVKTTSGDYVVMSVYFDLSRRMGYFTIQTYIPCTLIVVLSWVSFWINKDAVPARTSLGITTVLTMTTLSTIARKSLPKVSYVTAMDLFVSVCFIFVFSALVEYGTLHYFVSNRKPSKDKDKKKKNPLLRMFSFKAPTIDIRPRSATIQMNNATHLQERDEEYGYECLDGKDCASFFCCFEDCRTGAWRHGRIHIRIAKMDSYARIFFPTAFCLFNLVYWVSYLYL
# T1 sequence (P31644 32-462): as the sequence (P31644 32-462) above
# T1 sequence (P47870 25-512, further chain): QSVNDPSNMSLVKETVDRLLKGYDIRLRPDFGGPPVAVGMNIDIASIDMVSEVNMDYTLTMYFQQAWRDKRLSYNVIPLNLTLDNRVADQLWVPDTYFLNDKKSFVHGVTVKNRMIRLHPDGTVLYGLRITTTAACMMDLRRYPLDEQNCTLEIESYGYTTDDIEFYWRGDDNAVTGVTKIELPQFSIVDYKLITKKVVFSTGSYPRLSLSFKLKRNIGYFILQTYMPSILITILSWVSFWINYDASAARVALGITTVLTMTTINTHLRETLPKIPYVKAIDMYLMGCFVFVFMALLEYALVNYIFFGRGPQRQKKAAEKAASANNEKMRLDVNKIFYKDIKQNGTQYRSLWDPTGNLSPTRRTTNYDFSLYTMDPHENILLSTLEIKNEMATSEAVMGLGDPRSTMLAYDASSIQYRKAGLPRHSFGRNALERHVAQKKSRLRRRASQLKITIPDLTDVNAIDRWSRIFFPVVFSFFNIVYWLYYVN
# T1 sequence (P18507 40-475): as the sequence (P18507 40-475) above
SMILES,activation at 0.1 µM (GABAA receptors (α5β2γ2)) [%],Ki (α5β3γ2 GABAA receptors; [1]) [nM],Ki (α5β3γ2 GABAA receptors) [nM]
Cc1noc(-c2ncn3c2Cc2c(Cc4cccc(F)c4)nnn2-c2cc(C(F)(F)F)ccc2-3)n1 [Compound 482],20 to 50,< 100,–
Clc1ccc2c(c1)-n1nncc1Cc1c(-c3noc(-c4ccccc4)n3)ncn1-2 [Compound 537],20 to 50,< 100,–
Cc1noc(-c2ncn3c2Cc2cnnn2-c2cc(-c4ccccc4)ccc2-3)n1 [Compound 474],5 to 20,< 100,–
Cc1nnc(-c2ncn3c2Cc2cnnn2-c2cc(Cl)ccc2-3)o1 [Compound 508],5 to 20,< 100,–
FC(F)(F)Oc1ccc2c(c1)-n1nncc1Cc1c(C3=N[C@H](c4ccccc4)CO3)ncn1-2 [Compound 507],5 to 20,< 100,–
CCc1cncc(C#Cc2ncn3c2Cc2c(COC)nnn2-c2cc(Cl)ccc2-3)c1 [Compound 638],> 50,< 100,–
COc1ccc2c(c1)-n1nncc1Cc1c(C#Cc3ccn(C)n3)ncn1-2 [Compound 670],> 50,< 100,–
COCc1nnc2n1Cc1c(C#Cc3ccnn3C)ncn1-c1ccc(Cl)cc1-2 [Compound 682],> 50,< 100,–
COCc1nnc2n1Cc1c(C#Cc3ccc4[nH]ccc4c3)ncn1-c1ccc(OC)cc1-2 [Compound 715],20 to 50,< 100,–
COc1ccc2c(c1)-n1nncc1Cc1c(C3=N[C@H](c4ccccc4)CO3)ncn1-2 [Compound 290],20 to 50,< 100,–
COCc1nnn2c1Cc1c(C#Cc3ccc(OC)nc3)ncn1-c1ccc(Cl)cc1-2 [Compound 633],20 to 50,< 100,–
Clc1ccc2c(c1)-n1nncc1Cc1c(C3=NCC(c4ccccn4)O3)ncn1-2 (stereo not shown) [Compound 627],20 to 50,< 100,–
COCc1nnc2n1Cc1c(C#Cc3cnc(C)[nH]3)ncn1-c1ccc(Cl)cc1-2 [Compound 681],> 50,< 100,–
COCc1nnc2n1Cc1c(C#Cc3cnc(C)[nH]3)ncn1-c1ccc(OC)cc1-2 [Compound 685],> 50,–,–
COCc1nnc2n1Cc1c(C#Cc3ccnn3C)ncn1-c1ccc(OC)cc1-2 [Compound 686],> 50,–,–
"C#Cc1ncn2c1Cn1c(COc3ccccc3F)nnc1-c1cc(Cl)ccc1-2 [Compound 353, 15-chloro-5-ethynyl-9-(2-fluorophenoxymethyl)-2,4,8,10,11-pentaazatetracyclo[11.4.0.0^2,6.0^8,12]heptadeca-1(17),3,5,9,11,13,15-heptaene]",> 50,–,–
C#Cc1ncn2c1Cc1cnnn1-c1cc(Cl)ccc1-2 [Compound 356],> 50,–,–
CC(C)C#Cc1ccc2c(c1)-n1nncc1Cc1c(Br)ncn1-2 [Compound 454],5 to 20,–,–
COCc1nnc2n1Cc1c(C#CCc3cccc(F)c3)ncn1-c1ccc(Cl)cc1-2 [Compound 421],20 to 50,–,–
COCc1nnc2n1Cc1c(C#Cc3ccn(C)n3)ncn1-c1ccc(OC)cc1-2 [Compound 687],> 50,–,–

SMILES,activation at 0.1 µM (GABAA receptors (α5β2γ2)) [%],Ki (α5β3γ2 GABAA receptors; [1]) [nM],Ki (α5β3γ2 GABAA receptors) [nM]
CC1(C)OC(c2ncn3c2Cc2cnnn2-c2cc(OC(F)(F)F)ccc2-3)=N[C@@H]1c1ccccc1 [Compound 510],–,< 100,–
COCc1nnc2n1Cc1c(C#CC(C)(C)C)ncn1-c1ccc(Cl)cc1-2 [Compound 721],–,< 100,–
FC(F)Oc1ccc2c(c1)-n1nncc1Cc1c(C3=NC[C@H](c4ccccc4)O3)ncn1-2 [Compound 625],–,100 to 1000,–
Cc1noc(-c2ncn3c2Cc2c(Cc4cccc(F)c4)nnn2-c2cc(Cl)ccc2-3)n1 [Compound 477],–,< 100,–
FC(F)(F)c1ccc2c(c1)-n1nncc1Cc1c(C3=N[C@H](c4ccccc4)CO3)ncn1-2 [Compound 506],–,< 100,–
COCc1nnc2n1Cc1c(C#Cc3ccc(C(F)(F)F)cn3)ncn1-c1ccc(OC)cc1-2 [Compound 587],–,< 100,–
COCc1nnc2n1Cc1c(C#Cc3cncnc3)ncn1-c1ccc(OC)cc1-2 [Compound 592],–,< 100,–
COCc1nnc2n1Cc1c(C#Cc3ccc(O)nc3)ncn1-c1ccc(Cl)cc1-2 [Compound 568],–,< 100,–
COCc1nnc2n1Cc1c(C#Cc3ncc(C)cn3)ncn1-c1ccc(Cl)cc1-2 [Compound 600],–,100 to 1000,–
CC(C)Oc1ccc(C#Cc2ncn3c2Cc2cnnn2-c2cc(Cl)ccc2-3)cn1 [Compound 697],–,–,< 100
COCc1nnc2n1Cc1c(C#Cc3ccc(OC(C)C)nc3)ncn1-c1ccc(Cl)cc1-2 [Compound 708],–,< 100,–
COCc1nnc2n1Cc1c(C)ncn1-c1ccc(OC)cc1-2 [Compound 329],–,> 1000,–
CCCc1noc(-c2ncn3c2Cc2c(Cc4cccc(F)c4)nnn2-c2cc(Cl)ccc2-3)n1 [Compound 480],–,–,100 to 1000
COc1ccc2c(c1)-n1nncc1Cc1c(C#CCc3cccc(Cl)c3)ncn1-2 [Compound 417],5 to 20,–,–
Fc1cccc(Cc2nnn3c2Cc2c(-c4nc(-c5ccccc5)no4)ncn2-c2ccc(Cl)cc2-3)c1 [Compound 550],–,100 to 1000,–
CC(C)OCc1nnc2n1Cc1c(-c3nc(-c4ccccc4)co3)ncn1-c1ccc(Cl)cc1-2 [Compound 276],–,< 100,–
Clc1ccc2c(c1)-n1nncc1Cc1c(C#Cc3ccc(-n4cccc4)cc3)ncn1-2 [Compound 702],–,< 100,–
COCc1nnc2n1Cc1c(C#Cc3ccc(OC)c(C)n3)ncn1-c1ccc(OC)cc1-2 [Compound 586],–,< 100,–
COc1ccc2c(c1)-n1nncc1Cc1c(C#CCc3cccc(F)c3)ncn1-2 [Compound 419],20 to 50,–,–
COCc1nnc2n1Cc1c(C#Cc3ccc(C)cn3)ncn1-c1ccc(Cl)cc1-2 [Compound 557],–,< 100,–

SMILES,activation at 0.1 µM (GABAA receptors (α5β2γ2)) [%],Ki (α5β3γ2 GABAA receptors; [1]) [nM],Ki (α5β3γ2 GABAA receptors) [nM]
Fc1cccc(COCc2ncn3c2Cc2cnnn2-c2cc(Cl)ccc2-3)c1 [Compound 543],–,–,100 to 1000
COCc1nnc2n1Cc1c(C#CCc3cccc(OC(F)(F)F)c3)ncn1-c1ccc(Cl)cc1-2 [Compound 423],5 to 20,–,–
COCc1nnc2n1Cc1c(C#Cc3cnc(OC)nc3)ncn1-c1ccc(Cl)cc1-2 [Compound 575],–,100 to 1000,–
Cc1noc(-c2ncn3c2Cc2c(Cc4ccc(F)cc4)nnn2-c2cc(OC(F)(F)F)ccc2-3)n1 [Compound 478],–,< 100,–
COCc1nnc2n1Cc1c(C#Cc3ncc(C)cn3)ncn1-c1ccc(OC)cc1-2 [Compound 595],–,100 to 1000,–
Cc1noc(-c2ncn3c2Cc2c(Cc4ccc(F)cc4)nnn2-c2cc(C(F)(F)F)ccc2-3)n1 [Compound 484],–,–,< 100
COc1ccc2c(c1)-n1nncc1Cc1c(C#Cc3ccc(OC(F)F)nc3)ncn1-2 [Compound 693],–,–,< 100
COc1ccc2c(c1)-n1nncc1Cc1c(C3=NCC(C4CCCCC4)O3)ncn1-2 (racemic) [Compound 690],–,–,100 to 1000
Clc1ccc2c(c1)-c1nnc(COCc3ccccc3)n1Cc1c(-c3ncco3)ncn1-2 [Compound 350],> 50,–,–
COCc1nnc2n1Cc1c(C#CCc3cccc(Cl)c3)ncn1-c1ccc(Cl)cc1-2 [Compound 422],20 to 50,–,–
Fc1cccc(Cc2nnn3c2Cc2c(-c4nc(-c5ccccc5)no4)ncn2-c2ccc(C(F)(F)F)cc2-3)c1 [Compound 551],–,–,100 to 1000
C#Cc1ncn2c1Cn1c(COCC(F)(F)F)nnc1-c1cc(Cl)ccc1-2 [Compound 342],–,< 100,–
Fc1ccccc1OCc1ncn2c1Cc1cnnn1-c1cc(Cl)ccc1-2 [Compound 547],–,100 to 1000,–
COc1ccc2c(c1)-n1nncc1Cc1c(C#CCc3ccccc3OC(F)(F)F)ncn1-2 [Compound 420],5 to 20,–,–
COCc1nnc2n1Cc1c(C#Cc3cccc(OC)n3)ncn1-c1ccc(OC)cc1-2 [Compound 612],–,< 100,–
COCc1nnc2n1Cc1c(C#Cc3ncccn3)ncn1-c1ccc(Cl)cc1-2 [Compound 571],–,< 100,–
Clc1ccc2c(c1)-c1nnc(Oc3ccccc3)n1Cc1c(C3=N[C@H](c4ccccc4)CO3)ncn1-2 [Compound 541],–,< 100,–
COCc1nnc2n1Cc1c(C#Cc3cccnc3OC)ncn1-c1ccc(Cl)cc1-2 [Compound 614],–,< 100,–
COCc1nnc2n1Cc1c(C#Cc3cc(C)ccn3)ncn1-c1ccc(Cl)cc1-2 [Compound 560],–,< 100,–
COCc1nnc2n1Cc1c(C#Cc3ccc4ncccc4c3)ncn1-c1ccc(OC)cc1-2 [Compound 714],–,< 100,–
